Results from PubChem BioAssay (NCI).
Where “and” joins values, the source holds several entries; their conditions need not be identical. Identical values can stand only once.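 These data come from cells grown in 96-well plates and exposed to compound for 48 hours at five concentrations. GI50 = concentration required for 50% inhibition of growth. At the TGI there is no net growth.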 Where a SMILES comes first, the peptide text is derived from it. [ ]: non-standard residue; d: D form. NMeY = CN[C@@H](Cc1ccc(O)cc1)C(=O)O; dNMeF = CN[C@H](Cc1ccccc1)C(=O)O; Sar = CNCC(=O)O

Tests used:
Test in all cases: NCI anticancer screen, dose series, 48 h
[1] = system: A549 NSCLC
[2] = system: ACHN renal
[3] = system: M14 melanoma
[4] = system: NCI/ADR-RES ovarian
[5] = system: OVCAR-3 ovarian
[6] = system: OVCAR-4 ovarian
[7] = system: RXF 393 renal
[8] = system: SK-MEL-2 melanoma
[9] = system: SK-MEL-28 melanoma
[10] = system: SNB-19 CNS

| Structure (SMILES) | GI50 [1] [µM] | TGI [1] [µM] | GI50 [2] [µM] | TGI [2] | GI50 [3] [µM] | TGI [3] [µM] | GI50 [4] [µM] | TGI [4] [µM] | GI50 [5] | TGI [5] | GI50 [6] [µM] | TGI [6] [µM] | GI50 [7] [µM] | TGI [7] | GI50 [8] [µM] | TGI [8] | GI50 [9] | TGI [9] [µM] | GI50 [10] [µM] | TGI [10] |
| --- | --- | --- | --- | --- | --- | --- | --- | --- | --- | --- | --- | --- | --- | --- | --- | --- | --- | --- | --- | --- |
| CC[C@H](C)[C@@H]1NC(=O)[C@H](Cc2ccc(O)cc2)N(C)C(=O)[C@H](Cc2ccccc2)NC(=O)CN(C)C(=O)[C@@H]2CCCN2C(=O)[C@@H](Cc2ccccc2)N(C)C(=O)[C@H](CC(C)C)NC1=O (cyclo(F[NMeY]IL[dNMeF]P[Sar])) | 0.301 | 4.29 | 2.34 | 11.6 µM | 0.371 | 2.58 | 14 | > 100 | 0.248 µM | 3.39 µM | 0.306 | 3.99 | 0.519 | 3.27 µM | 0.327 | 1.91 µM | 0.194 µM | 1.46 | 0.146 | 6.92 µM |
| CC(=O)OC1CCC2(C)C(CCC3C4CC=C(C(C)=O)C4(C)OC(=O)CC32)C1 (stereo unspecified) | 7.22 | 23.1 | 1.3 | 2.61 µM | 1.71 | 3.51 | 3.45 | 13 | 1.63 µM | 3.04 µM | 1.7 | 3.31 | 1.15 | 2.51 µM | 2.91 | 8.42 µM | 1.74 µM | 3.27 | 13.3 | 27.9 µM |
| CCOC(=O)c1ccc(Nc2sc(C(=O)c3cccc([N+](=O)[O-])c3)c(N)c2C#N)cc1 | 0.23 | – | 0.0976 | > 44.2 µM | 0.213 | 23.9 | 0.0521 | 25.7 | 0.0218 µM | 0.0617 µM | 0.612 | 57.1 | 0.167 | 24.8 µM | 0.403 | 24.4 µM | 8.32 µM | > 59.9 | 0.338 | 18.6 µM |
| Nc1c(C(=O)c2cccc(C#CCN3CCOCC3)c2)cnn1-c1ccc(F)cc1 | > 16.6 | > 25 | > 25 | > 25 µM | > 25 | > 25 | 8.23 | > 25 | > 23.1 µM | > 25 µM | > 25 | > 25 | > 25 | > 25 µM | > 15.3 | > 25 µM | > 25 µM | > 25 | > 25 | > 25 µM |
| O=C(NC(=S)NNC(=S)NNc1ccccc1)c1ccccc1 | 8.58 | > 100 | 10.1 | > 100 µM | 7.45 | 55.6 | 5.26 | > 100 | 18.2 µM | > 100 µM | 11 | > 100 | 29 | > 100 µM | 4.11 | > 100 µM | 10.6 µM | > 100 | 13 | > 100 µM |
| COc1ccc2[nH]c(=O)c(/C=C/C(=O)/C=C/c3ccc(O)c(OC)c3)cc2c1 | 2.24 | 6.35 | 1.68 | 3.13 µM | 1.67 | 4.99 | 3.39 | > 100 | 1.18 µM | 2.55 µM | 2.91 | 29.4 | 1.5 | 2.9 µM | 2.47 | 6.24 µM | 1.69 µM | 3.25 | 1.67 | 3.92 µM |
| COc1cccc(-n2ncc3c(N/N=C/c4ccc(S(C)(=O)=O)cc4)ncnc32)c1 | 9.24 | > 25 | 6.27 | > 25 µM | 5.74 | > 25 | 9.1 | > 25 | 7.41 µM | > 23 µM | 13.1 | > 25 | 2.2 | 8.76 µM | 9.94 | > 25 µM | 9.26 µM | > 25 | 11.5 | > 25 µM |
| Nc1c(C(=O)c2cccc(CCC3(O)CCCC3)c2)cnn1-c1ccc(F)cc1 | 12.6 | > 25 | > 21 | > 25 µM | 14.9 | > 25 | 7.68 | > 25 | > 18 µM | > 25 µM | 8.71 | > 25 | 16.9 | > 25 µM | > 25 | > 25 µM | > 22.9 µM | > 25 | 15.3 | > 25 µM |
| N#CSCc1c(Cl)cccc1Cl | 3.31 | > 100 | 5.14 | > 100 µM | 3.05 | > 100 | 6.25 | > 100 | 2.39 µM | 5.18 µM | 5.82 | > 100 | 2.54 | 7.24 µM | 4.02 | > 100 µM | 9.16 µM | > 100 | 32.3 | > 100 µM |
| CC[N+]1(C)CCC(O)(c2ccccc2)C(C(=O)c2ccccc2)C1 (stereo unspecified) | – | 27.9 | – | 23 µM | – | 24.1 | – | 83.6 | – | 45.7 µM | – | 25.9 | – | 26.6 µM | – | 37.7 µM | – | 30.9 | – | 24.5 µM |
| C#C[C@@]1(O)[C@@H](CO)O[C@@H](n2ccc3c(N)ncnc32)[C@@H]1O | 1.31 | > 100 | 0.56 | 4.48 µM | 1.42 | 3 | 0.791 | 7.28 | 2.96 µM | 12 µM | 1.97 | 7.79 | 1.93 | 4.6 µM | 1.37 | 6.32 µM | 3.99 µM | 20.2 | 1.62 | 6.61 µM |
| CCCCCCCCCCCC[n+]1ccccc1 | 2.02 | 5.16 | 2.09 | 14.2 µM | 0.835 | 2.82 | 14.9 | 50.7 | 0.835 µM | 2.88 µM | 0.515 | 14.5 | 0.738 | 3.87 µM | 1.44 | 3.73 µM | 1.68 µM | 5.12 | 1.3 | 2.94 µM |
| C/C(=N\NC(=O)c1ccccc1O)c1cccc(/C(C)=N/NC(=O)c2ccccc2O)n1 | > 70.8 | > 100 | 0.668 | 50.5 µM and > 62.9 µM | – | > 100 | > 100 | > 100 | 1.06 µM and 0.362 µM | 24.3 µM and > 53.5 µM | 15.9 | > 100 | 5.38 | 32.5 µM and 30.6 µM | – | 38.9 µM and > 100 µM | 24.4 µM and > 100 µM | > 100 | – | 74.2 µM and > 100 µM |
